Reference: patent US11214803B2, “Modulators of YAP1 expression” (Ionis Pharmaceuticals, Inc., priority 2019, dated 2022)
Strand notation (5' to 3'): a small letter for the sugar, then the base; units joined by * are phosphorothioate-linked, units joined directly phosphodiester-linked; [ ] holds rarer units or linkages, { } end groups; capitals alone tell only the bases. k = constrained ethyl (cEt); [5mC] = 5-methylcytosine; d = 2'-deoxy (DNA)

These substances were tested on Yap1 mRNA (assay: Antisense inhibition of human Yap1 in A-431 cells by cEt gapmers, single dose (Example 2, RTS4814)). Conditions: A-431 cells, 5,000 cells per well, free uptake, 2,000 nM modified oligonucleotide, approx. 48 hours, RTS4814, normalized to RIBOGREEN; Table 4; asterisk (*) = targets amplicon region of primer probe set.
Type: cell-based
Summary of the method: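 A-431 cells (5,000/well) took up 2,000 nM 3-10-3 cEt gapmer by free uptake for ~48 h. Yap1 mRNA was quantified by qRT-PCR with primer probe set RTS4814, normalized to RIBOGREEN total RNA, and reported as % of untreated control.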

In order of rising “YAP1 (% UTC)” value:
1. 716436 (kA*k[5mC]*kT*dG*dG*dA*d[5mC]*dA*dA*dA*dG*dG*dA*kA*kG*k[5mC]; antisense) [Compound 716436]  59 % UTC
2. 716349 (kA*k[5mC]*kT*dT*dT*dT*dT*d[5mC]*d[5mC]*d[5mC]*dT*d[5mC]*d[5mC]*kA*kA*k[5mC]; antisense) [Compound 716349]  78 % UTC
3. 716394 (kG*kT*kT*dG*d[5mC]*dT*dG*d[5mC]*dA*dG*dT*d[5mC]*dG*k[5mC]*kA*kT; antisense) [Compound 716394]  120 % UTC

Same assay, conditions: Table 5; A-431 cells, 5,000 cells per well, free uptake, 2,000 nM modified oligonucleotide, approx. 48 hours; RTS4814; normalized to RIBOGREEN; Yap1 mRNA relative to untreated control cells

In order of falling “YAP1 (% UTC)” value:
1. 716488 (k[5mC]*kA*kT*dT*dA*dT*dT*dA*d[5mC]*dT*d[5mC]*d[5mC]*dT*kG*kT*kA; antisense) [Compound 716488]  67 % UTC
2. 716449 (kG*kG*kT*d[5mC]*dA*dT*dT*dT*dG*d[5mC]*d[5mC]*dT*dA*kG*kG*kT; antisense) [Compound 716449]  49 % UTC
3. 716434 (kT*kA*kA*dA*dT*dG*d[5mC]*dT*dG*dT*dG*dA*d[5mC]*kA*kT*kG; antisense) [Compound 716434]  44 % UTC

Same assay, conditions: Table 6; A-431 cells, 5,000 cells per well, free uptake, 2,000 nM modified oligonucleotide, approx. 48 hours; RTS4814; normalized to RIBOGREEN; Yap1 mRNA relative to untreated control cells

In order of rising “YAP1 (% UTC)” value:
1. 716570 (kA*kA*kG*dT*dG*dT*dT*dT*dA*dG*dG*d[5mC]*dA*kA*kG*k[5mC]; antisense) [Compound 716570]  56 % UTC
2. 716348 (kA*k[5mC]*kG*dG*dA*dG*dG*d[5mC]*d[5mC]*dG*dG*dA*d[5mC]*kA*kG*k[5mC]; antisense) [Compound 716348]  107 % UTC
3. 716459 (k[5mC]*kG*k[5mC]*dT*dA*d[5mC]*d[5mC]*dA*dT*dT*dT*dT*dA*kA*kA*kA; antisense) [Compound 716459]  121 % UTC

Same assay, conditions: Table 18; A-431 cells, 5,000 cells per well, free uptake, 2,000 nM modified oligonucleotide, approx. 48 hours; RTS4814; normalized to RIBOGREEN; Yap1 mRNA as percent of untreated control

In order of falling “YAP1 (% UTC)” value:
1. 1076548 (antisense k[5mC]*kA*k[5mC]*d[5mC]*dA*dA*d[5mC]*d[5mC]*dT*dG*dT*dT*dA*kA*kG*kG) [Compound 1076548]  106 % UTC
2. 1076068 (k[5mC]*kT*kA*dA*dA*dA*dT*dG*dA*d[5mC]*d[5mC]*dT*dT*kA*kG*k[5mC]; antisense) [Compound 1076068]  73 % UTC
3. 1075076 (antisense k[5mC]*kA*kT*dA*dA*d[5mC]*dA*dT*d[5mC]*dA*dT*dG*dG*kA*kA*kG) [Compound 1075076]  25 % UTC
4. 1074628 (antisense kG*k[5mC]*k[5mC]*dT*dG*dT*dT*dA*dT*dG*dA*dA*d[5mC]*k[5mC]*k[5mC]*kT) [Compound 1074628]  5 % UTC

Same assay, conditions: Table 19; A-431 cells, 5,000 cells per well, free uptake, 2,000 nM modified oligonucleotide, approx. 48 hours; RTS4814; normalized to RIBOGREEN; Yap1 mRNA as percent of untreated control

With “1075397 (antisense k[5mC]*kA*kT*dT*dA*dT*d[5mC]*dG*d[5mC]*dA*d[5mC]*dA*dT*kA*k[5mC]*kA) [Compound 1075397]” the “YAP1 (% UTC)” value was 79 % UTC.

Same assay, conditions: Table 20; Yap1 mRNA, percent of untreated control; 3-10-3 cEt gapmers targeting SEQ ID NO.: 1 and 2

In order of rising “YAP1 (% UTC)” value:
1. 1076134 (kG*kA*kT*dT*dA*dG*dA*dG*dT*dT*dG*dG*dG*k[5mC]*kA*kT; antisense) [Compound 1076134]  10 % UTC
2. 1074918 (antisense kT*k[5mC]*kA*dA*dG*dT*dT*dA*d[5mC]*dA*dT*d[5mC]*d[5mC]*k[5mC]*kG*kA) [Compound 1074918]  60 % UTC
3. 1075654 (kT*kA*kT*dT*dA*dA*dG*dA*d[5mC]*dG*dA*dA*dT*k[5mC]*k[5mC]*kA; antisense) [Compound 1075654]  76 % UTC
4. 1075110 (antisense kG*kA*k[5mC]*dT*dA*dA*dA*dA*dA*d[5mC]*dA*dT*dT*kG*kT*kG) [Compound 1075110]  120 % UTC

Same assay, conditions: Table 21; Yap1 mRNA, percent of untreated control; 3-10-3 cEt gapmers targeting SEQ ID NO.: 1 and 2

In order of rising “YAP1 (% UTC)” value:
1. 1074535 (antisense kG*kT*kA*dA*dT*dA*dG*d[5mC]*dT*d[5mC]*dT*dT*dT*k[5mC]*kT*kA) [Compound 1074535]  5 % UTC
2. 1076391 (k[5mC]*kA*kA*dA*dT*dA*dT*dA*dG*dT*dT*dA*dG*k[5mC]*k[5mC]*kT; antisense) [Compound 1076391]  22 % UTC
3. 1074503 (k[5mC]*kA*kA*d[5mC]*dT*dA*d[5mC]*dA*dA*dT*dA*dA*d[5mC]*k[5mC]*kA*kT; antisense) [Compound 1074503]  29 % UTC
4. 1074375 (antisense kG*k[5mC]*kA*dG*dG*dG*dT*dG*d[5mC]*dT*dT*dT*dG*kG*kT*kT) [Compound 1074375]  33 % UTC
5. 1074887 (antisense kT*kA*kG*d[5mC]*d[5mC]*dT*dG*dA*dA*dG*d[5mC]*dA*dA*kG*kT*kT) [Compound 1074887]  57 % UTC

Same assay, conditions: Table 22; Yap1 mRNA as percent of untreated control; 3-10-3 cEt gapmers; single dose

In the case of “1075080 (antisense kA*kT*kT*dA*d[5mC]*dA*dA*dA*dG*dA*d[5mC]*dA*dG*k[5mC]*k[5mC]*k[5mC]) [Compound 1075080]”, the “YAP1 (% UTC)” value was 18 % UTC.

Same assay, conditions: Table 23; Yap1 mRNA as percent of untreated control; 3-10-3 cEt gapmers; single dose

In order of falling “YAP1 (% UTC)” value:
1. 1074953 (antisense kG*kG*kG*dT*dT*dT*dT*dT*dG*dT*d[5mC]*dA*dT*k[5mC]*kA*kG) [Compound 1074953]  32 % UTC
2. 1074665 (antisense kT*kT*kG*d[5mC]*dA*dT*dT*d[5mC]*dT*dA*dG*dG*dT*kA*kG*kA) [Compound 1074665]  17 % UTC

Same assay, conditions: Table 24; Yap1 mRNA as percent of untreated control; 3-10-3 cEt gapmers targeting SEQ ID NO.: 1, and 2

In order of falling “YAP1 (% UTC)” value:
1. 1075242 (antisense k[5mC]*kA*kG*dG*dG*dA*dT*dA*dA*dT*dT*dA*d[5mC]*kT*kA*kA) [Compound 1075242]  7 % UTC
2. 1074250 (antisense k[5mC]*kT*kG*dA*dT*d[5mC]*dG*dA*dT*dG*dT*dG*dA*kT*kT*kT) [Compound 1074250]  6 % UTC

Same assay, conditions: Table 25; Yap1 mRNA as percent of untreated control; 3-10-3 cEt gapmers targeting SEQ ID NO.: 1, and 2

In order of rising “YAP1 (% UTC)” value:
1. 1076331 (k[5mC]*kA*kT*dT*dA*dT*dT*d[5mC]*dA*dG*dT*dA*dG*kT*kT*kG; antisense) [Compound 1076331]  71 % UTC
2. 1074155 (antisense k[5mC]*k[5mC]*k[5mC]*dG*dG*d[5mC]*dT*d[5mC]*d[5mC]*dA*d[5mC]*dG*dG*kG*k[5mC]*k[5mC]) [Compound 1074155]  87 % UTC

Same assay, conditions: Table 32; Yap1 mRNA, percent of untreated control; 3-10-3 cEt gapmers targeting SEQ ID NO.: 1, and 2

In order of rising “YAP1 (% UTC)” value:
1. 1074834 (kT*kT*kG*d[5mC]*dG*dA*dG*dG*dA*dT*dA*dA*dA*kA*kT*k[5mC]; antisense) [compound 1074834]  14 % UTC
2. 1075122 (kG*kA*kA*dA*dA*dT*dT*dA*dG*d[5mC]*d[5mC]*dT*dA*k[5mC]*k[5mC]*kA; antisense) [compound 1075122]  16 % UTC
3. 1074674 (antisense kT*kA*kT*dA*dG*dG*d[5mC]*dA*d[5mC]*dT*d[5mC]*d[5mC]*dT*kT*k[5mC]*k[5mC]) [compound 1074674]  22 % UTC
4. 1074130 (kA*kT*k[5mC]*d[5mC]*d[5mC]*d[5mC]*d[5mC]*dG*d[5mC]*d[5mC]*d[5mC]*d[5mC]*dG*kG*k[5mC]*kG; antisense) [compound 1074130]  119 % UTC

Same assay, conditions: Table 33; Yap1 mRNA, percent of untreated control; 3-10-3 cEt gapmers targeting SEQ ID NO.: 1, and 2

In order of falling “YAP1 (% UTC)” value:
1. 1075955 (kG*kA*k[5mC]*d[5mC]*dT*dA*dT*dA*dA*dT*dA*d[5mC]*dA*kG*kA*kA; antisense) [compound 1075955]  85 % UTC
2. 1074931 (antisense kG*kA*kG*dA*d[5mC]*dT*dA*dT*dA*d[5mC]*dA*dA*d[5mC]*kA*kG*kG) [compound 1074931]  35 % UTC
3. 1075059 (antisense kA*kT*kT*dT*dA*d[5mC]*dT*dT*dT*dG*dG*dA*dT*kG*kT*k[5mC]) [compound 1075059]  11 % UTC

Same assay, conditions: Yap1 mRNA as percent of untreated control; A-431 cells; 3-10-3 cEt gapmers targeting SEQ ID NO.: 1, and 2; Table 30

In order of rising “YAP1 (% UTC)” value:
1. 1075728 (k[5mC]*kT*kT*dT*dA*dT*d[5mC]*dG*dG*dA*dG*dG*d[5mC]*kT*kT*k[5mC]; antisense) [compound 1075728]  15 % UTC
2. 1076304 (kA*k[5mC]*kT*dA*dA*dT*dA*dA*dG*d[5mC]*d[5mC]*dT*d[5mC]*kA*k[5mC]*k[5mC]; antisense) [compound 1076304]  30 % UTC
3. 1076176 (k[5mC]*kT*k[5mC]*d[5mC]*dA*dA*dT*dA*dG*dG*dT*dA*dA*k[5mC]*kA*kG; antisense) [compound 1076176]  43 % UTC
4. 1076240 (kA*kT*kT*dA*dA*dA*dA*dG*d[5mC]*dA*dA*dG*dG*kT*kG*k[5mC]; antisense) [compound 1076240]  56 % UTC

Same assay, conditions: Yap1 mRNA as percent of untreated control; A-431 cells; 3-10-3 cEt gapmers targeting SEQ ID NO.: 1, and 2; Table 31

In order of falling “YAP1 (% UTC)” value:
1. 1075473 (kA*kG*kT*dT*dA*dT*dA*dA*d[5mC]*dT*dG*dT*dA*k[5mC]*kT*kA; antisense) [compound 1075473]  89 % UTC
2. 1076145 (k[5mC]*k[5mC]*kT*dT*dA*dT*dA*dG*dG*dT*dT*dA*dT*kA*kG*kT; antisense) [compound 1076145]  41 % UTC
3. 1076337 (antisense kA*kT*kT*dA*dA*dA*d[5mC]*d[5mC]*dA*dG*dG*dG*dA*k[5mC]*kT*kG) [compound 1076337]  25 % UTC
4. 1075441 (antisense kG*kA*kA*dT*dT*dA*dA*dA*dG*d[5mC]*dA*dG*dT*kG*k[5mC]*k[5mC]) [compound 1075441]  24 % UTC
